Reference: US20110250135A1, “Piperazine Derivatives for Binding and Imaging Amyloid Plaques and Their Use” (Bayer Schering Pharma Aktiengesellschaft, priority 2008, published 2011)

Columns and labels:
[1] = Biodistribution: organ distribution of F-18 signal in mice; format: in vivo, male NMRI mice; conditions: for Organ distribution of F-18 signal, intestine: intestine (with content); for Organ distribution of F-18 signal, stomach: stomach (without content)
Procedure: Biodistribution and excretion studies were performed in male NMRI mice (body weight app. 30g; 3 animals per time point). The animals were kept under normal laboratory conditions at a temperature of 22±2° C. and a dark/light rhythm of 12 hours. Food and water were provided ad libitium. During an acclimation period of at least 3 days before the beginning of the study animals were clinically examined to ascertain the absence of abnormal clinical signs. At 2, 5, 30, 60, 240 min post intravenous injection via the tail vein of ca. 150 kBq in 100 μl of the test compound, urine and feces were quantitatively collected. At the same time points, animals were sacrificed by decapitation and under isoflurane anaesthesia and the following organs and tissues were removed for the determination of radioactivity using a gamma-counter: spleen, liver, kidney, lung, femur, heart, brain, fat, thyroid, muscle, skin, blood, tail, stomach (without content), testicle, intestine (with content), pancreas, adrenals, and the remaining body. For analysis the decay corrected percentage of the injected dose per tissue weight (% ID/g±standard deviation) was calculated.

Aβ plaques = target: T1, Aβ plaques (Homo sapiens, UniProt P05067); assay: Autoradiographical analysis of binding to cryosections from cortex of AD patients and controls; conditions: F-18 labeled compound; Alzheimer's disease patients (AD) vs controls without Aβ plaques
T1 construct: controls without Aβ plaques; from tissue; host or cells: frontal lobe / cortex sections (frozen and paraffin) from AD patients, FTD patients and age-matched controls
Text: Fresh frozen as well as paraffin embedded sections of the frontal lobe from Alzheimer's dementia patients, frontotemporal dementia patients and age matched controls were used for the study. Frozen sections, sliced at 18 μm thickness on a cryostate (Leica, Germany) and paraffin sections, sliced on a sliding microtom (Leica) at a thickness of 6 μm, were mounted onto glass slides (Superfrost Plus, Fa.Menzel, Braunschweig Germany). Frozen sections were allowed to adhere to the slides for several nights at −20° C. The paraffin sections were deparaffinized using routine histological methods. For binding studies sections were incubated with the F-18 labeled test compound at 10 Bq/μl diluted in 25 mM Hepes buffer, pH 7.4, 0.1% (BSA) (200-300 μl/slide) for 1.5 hour at room temperature in a humidified chamber. For blocking experiments a 1000-fold access of the unlabeled test substance was added to the incubation mixture. After hybridization, sections were washed four times with Hepes buffer, 0.1% BSA (or alternatively two times with 40% ethanol) and finally dipped two times into dest. water for 10 sec. The air-dried sections were exposed to imaging plates and signals were detected by a phosphoimager device (Fuji BAS5000).

T1 sequence (P05067 672-713 limits assumed): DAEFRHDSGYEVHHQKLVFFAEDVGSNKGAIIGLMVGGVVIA

## O=C(NCC(=O)N1CCN(c2ccc(OCc3ccccc3)cc2)CC1)c1ccnc([18F])c1 [Example 11c, N-{2-[4-(4-Benzyloxy-phenyl)-piperazin-1-yl]-2-oxoethyl}-2-[F-18]-fluoro-isonicotinamide]
[1]; 2 min post i.v. injection
  Organ distribution of F-18 signal, adrenals: 9.24 % ID/g
  Organ distribution of F-18 signal, blood: 1.70 % ID/g
  Organ distribution of F-18 signal, brain: 5.54 % ID/g
  Organ distribution of F-18 signal, fat: 1.52 % ID/g
  Organ distribution of F-18 signal, femur: 1.53 % ID/g
  Organ distribution of F-18 signal, heart: 4.68 % ID/g
  Organ distribution of F-18 signal, intestine: 2.14 % ID/g
  Organ distribution of F-18 signal, kidney: 7.68 % ID/g
  Organ distribution of F-18 signal, liver: 7.17 % ID/g
  Organ distribution of F-18 signal, lung: 4.14 % ID/g
  Organ distribution of F-18 signal, muscle: 2.38 % ID/g
  Organ distribution of F-18 signal, pancreas: 4.44 % ID/g
  Organ distribution of F-18 signal, skin: 1.22 % ID/g
  Organ distribution of F-18 signal, spleen: 1.47 % ID/g
  Organ distribution of F-18 signal, stomach: 3.46 % ID/g
  Organ distribution of F-18 signal, tail: 8.55 % ID/g
  Organ distribution of F-18 signal, testicle: 1.36 % ID/g
  Organ distribution of F-18 signal, thyroid: 3.11 % ID/g
[1]; 5 min post i.v. injection
  Organ distribution of F-18 signal, adrenals: 5.60 % ID/g
  Organ distribution of F-18 signal, blood: 1.78 % ID/g
  Organ distribution of F-18 signal, brain: 4.73 % ID/g
  Organ distribution of F-18 signal, fat: 1.84 % ID/g
  Organ distribution of F-18 signal, femur: 1.54 % ID/g
  Organ distribution of F-18 signal, heart: 4.36 % ID/g
  Organ distribution of F-18 signal, intestine: 2.66 % ID/g
  Organ distribution of F-18 signal, kidney: 8.07 % ID/g
  Organ distribution of F-18 signal, liver: 12.14 % ID/g
  Organ distribution of F-18 signal, lung: 3.76 % ID/g
  Organ distribution of F-18 signal, muscle: 2.54 % ID/g
  Organ distribution of F-18 signal, pancreas: 3.97 % ID/g
  Organ distribution of F-18 signal, skin: 1.80 % ID/g
  Organ distribution of F-18 signal, spleen: 2.01 % ID/g
  Organ distribution of F-18 signal, stomach: 3.07 % ID/g
  Organ distribution of F-18 signal, tail: 5.41 % ID/g
  Organ distribution of F-18 signal, testicle: 1.70 % ID/g
  Organ distribution of F-18 signal, thyroid: 2.41 % ID/g
[1]; 30 min post i.v. injection
  Organ distribution of F-18 signal, adrenals: 2.41 % ID/g
  Organ distribution of F-18 signal, blood: 1.13 % ID/g
  Organ distribution of F-18 signal, brain: 1.00 % ID/g
  Organ distribution of F-18 signal, fat: 1.94 % ID/g
  Organ distribution of F-18 signal, femur: 0.68 % ID/g
  Organ distribution of F-18 signal, heart: 1.54 % ID/g
  Organ distribution of F-18 signal, intestine: 10.01 % ID/g
  Organ distribution of F-18 signal, kidney: 7.83 % ID/g
  Organ distribution of F-18 signal, liver: 9.41 % ID/g
  Organ distribution of F-18 signal, lung: 1.65 % ID/g
  Organ distribution of F-18 signal, muscle: 1.03 % ID/g
  Organ distribution of F-18 signal, pancreas: 2.20 % ID/g
  Organ distribution of F-18 signal, skin: 1.43 % ID/g
  Organ distribution of F-18 signal, spleen: 0.93 % ID/g
  Organ distribution of F-18 signal, stomach: 3.10 % ID/g
  Organ distribution of F-18 signal, tail: 3.21 % ID/g
  Organ distribution of F-18 signal, testicle: 1.13 % ID/g
  Organ distribution of F-18 signal, thyroid: 1.08 % ID/g
[1]; 60 min post i.v. injection
  Organ distribution of F-18 signal, adrenals: 2.45 % ID/g
  Organ distribution of F-18 signal, blood: 0.49 % ID/g
  Organ distribution of F-18 signal, brain: 0.34 % ID/g
  Organ distribution of F-18 signal, fat: 0.80 % ID/g
  Organ distribution of F-18 signal, femur: 0.38 % ID/g
  Organ distribution of F-18 signal, heart: 0.54 % ID/g
  Organ distribution of F-18 signal, intestine: 14.79 % ID/g
  Organ distribution of F-18 signal, kidney: 4.37 % ID/g
  Organ distribution of F-18 signal, liver: 4.72 % ID/g
  Organ distribution of F-18 signal, lung: 0.69 % ID/g
  Organ distribution of F-18 signal, muscle: 0.38 % ID/g
  Organ distribution of F-18 signal, pancreas: 0.77 % ID/g
  Organ distribution of F-18 signal, skin: 0.66 % ID/g
  Organ distribution of F-18 signal, spleen: 0.37 % ID/g
  Organ distribution of F-18 signal, stomach: 1.13 % ID/g
  Organ distribution of F-18 signal, tail: 0.87 % ID/g
  Organ distribution of F-18 signal, testicle: 0.65 % ID/g
  Organ distribution of F-18 signal, thyroid: 0.50 % ID/g
[1]; 240 min post i.v. injection
  Organ distribution of F-18 signal, adrenals: 0.30 % ID/g
  Organ distribution of F-18 signal, blood: 0.12 % ID/g
  Organ distribution of F-18 signal, brain: 0.05 % ID/g
  Organ distribution of F-18 signal, fat: 0.08 % ID/g
  Organ distribution of F-18 signal, femur: 0.16 % ID/g
  Organ distribution of F-18 signal, heart: 0.13 % ID/g
  Organ distribution of F-18 signal, intestine: 13.00 % ID/g
  Organ distribution of F-18 signal, kidney: 1.12 % ID/g
  Organ distribution of F-18 signal, liver: 2.09 % ID/g
  Organ distribution of F-18 signal, lung: 0.31 % ID/g
  Organ distribution of F-18 signal, muscle: 0.07 % ID/g
  Organ distribution of F-18 signal, pancreas: 0.18 % ID/g
  Organ distribution of F-18 signal, skin: 0.10 % ID/g
  Organ distribution of F-18 signal, spleen: 0.09 % ID/g
  Organ distribution of F-18 signal, stomach: 0.34 % ID/g
  Organ distribution of F-18 signal, tail: 0.39 % ID/g
  Organ distribution of F-18 signal, testicle: 0.15 % ID/g
  Organ distribution of F-18 signal, thyroid: 0.19 % ID/g
Aβ plaques
  autoradiographical analysis of binding to cryosections from cortex: Specific binding in plaque-rich regions of AD samples
